Measured values reported in patent US20200000825A1, “METHODS AND COMPOSITIONS FOR TREATING AND PREVENTING VIRAL INFECTIONS” (ENTERIN LABORATORIES, INC., priority 2009, published 2020).
Like-named read-outs stand apart in the source and are kept apart here.

How the values were obtained:
[1] = test system: Eastern Equine Encephalitis Virus; assay type: in vivo, hamsters (Syrian golden); settings: 10 mg/kg/day s.c.
[2] = cited from earlier work
Yellow Fever [3] = assay type: in vivo, Syrian hamsters
RAW264.7 cell line = settings: squalamine 80 μM, 30 minutes; cited from earlier work
[4] = test system: Eastern Equine Encephalitis Virus; assay type: in vivo
Human Oct 3 = target: T1, Human Oct 3 (Homo sapiens, UniProt O75751); assay: MPP uptake inhibition (transport competition) assay in CHO cells over-expressing a human Oct transporter; assay type: cell-based; settings: 100 μM aminosterol, radiolabelled MPP 0.01 μM, 1-second exposure
T1 sequence (O75751 1-556): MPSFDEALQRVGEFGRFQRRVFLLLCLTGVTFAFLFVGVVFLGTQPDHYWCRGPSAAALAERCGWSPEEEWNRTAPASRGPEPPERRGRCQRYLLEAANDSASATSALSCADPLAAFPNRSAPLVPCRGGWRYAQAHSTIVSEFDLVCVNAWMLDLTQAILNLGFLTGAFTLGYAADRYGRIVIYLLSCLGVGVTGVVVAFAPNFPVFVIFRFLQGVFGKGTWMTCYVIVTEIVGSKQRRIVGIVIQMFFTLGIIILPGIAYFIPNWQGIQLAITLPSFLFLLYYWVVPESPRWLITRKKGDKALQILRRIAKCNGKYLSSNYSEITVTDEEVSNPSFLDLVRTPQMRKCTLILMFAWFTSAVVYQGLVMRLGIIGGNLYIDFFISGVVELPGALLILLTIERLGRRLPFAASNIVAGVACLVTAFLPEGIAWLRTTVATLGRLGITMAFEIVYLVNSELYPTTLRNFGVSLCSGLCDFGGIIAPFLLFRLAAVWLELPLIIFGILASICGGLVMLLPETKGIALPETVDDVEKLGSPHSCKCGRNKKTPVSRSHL
Procedure: (§1) This example determines whether squalamine is a substrate for the organic cation transporter (Oct). This determination employed a standard transport competition assay, described in the literature (Lips, Volk et al. 2005).
(§2) Chinese hamster ovary cells, previously engineered to over-express a specific human Oct transporter were used in the assay. In this example, the effect of a specific concentration of an amino sterol is determined on the intracellular uptake of radiolabelled 1-methyl-4-phenylpyridine (MPP) (at 0.01 μM), measured after a 1-second exposure. […] IC50 refers to the concentration of squalamine or 1436 required to inhibit MPP uptake by 50%. Table 1 below describes the affinity of squalamine and Amino sterol 1436 for human organic cation transporters (Human Oct 1, Human Oct 2, and Human Oct 3) based upon the MPP uptake inhibition assay.

Human Oct 1 = target: T2, Human Oct 1 (Homo sapiens, UniProt O15245); assay: as above; assay type: cell-based
T2 sequence (O15245 1-554): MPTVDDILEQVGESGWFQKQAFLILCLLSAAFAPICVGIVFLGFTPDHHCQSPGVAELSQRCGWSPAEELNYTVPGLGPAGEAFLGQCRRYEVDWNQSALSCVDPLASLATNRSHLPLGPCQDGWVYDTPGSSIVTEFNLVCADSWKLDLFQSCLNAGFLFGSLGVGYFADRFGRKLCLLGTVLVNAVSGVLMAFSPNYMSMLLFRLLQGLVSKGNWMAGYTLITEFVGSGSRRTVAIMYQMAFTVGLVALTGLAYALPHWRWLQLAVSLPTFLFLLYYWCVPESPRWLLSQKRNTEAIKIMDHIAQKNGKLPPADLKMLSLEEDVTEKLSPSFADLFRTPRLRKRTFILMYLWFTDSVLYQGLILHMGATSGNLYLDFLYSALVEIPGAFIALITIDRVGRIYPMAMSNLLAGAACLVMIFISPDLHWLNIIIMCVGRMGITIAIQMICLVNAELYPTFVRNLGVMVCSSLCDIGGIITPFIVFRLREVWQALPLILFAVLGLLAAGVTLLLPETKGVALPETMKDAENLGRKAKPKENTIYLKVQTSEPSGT
Procedure: as §1, §2

HUVECs = assay: Thrombin induced stress fiber formation in endothelial cells; assay type: cell-based, human; settings: aminosterol 20 μM, thrombin 20 ng/ml, 2 hours
Procedure: The basic methods have been published (Williams, […] et al. 2001). HUVECs were grown on fibronectin-covered coverslips in EGM medium. […] Following a rinse, the cells were exposed to a 1:400 dilution of an FITC-goat antimurine antibody and 250 ng/ml TRITC phalloidin. The stained coverslips were visualized by fluorescence microscopy.

Yellow Fever [5] = assay type: in vivo, Syrian hamsters; settings: squalamine 15 mg/kg/d s.c. qd, -24 h to 6 dpi
[6] = test system: human immunodeficiency virus (HIV)

In the case of `CC(C)[C@@H](CC[C@@H](C)[C@H]1CC[C@H]2[C@@H]3[C@H](O)C[C@H]4C[C@@H](NCCCNCCCCN)CC[C@]4(C)[C@H]3CC[C@]12C)OS(=O)(=O)O` [Squalamine, squalamine], the “Hamsters still alive at the end of treatment” value ([1]; -24 h to 6 days after infection) is listed as 6/10, the “Plasma concentration of virus, lower than vehicle” value ([1]; first 3 days post infection) is listed as “about 100 fold” and the “Patients with dose-limiting toxicity (grade 3/4 arthralgia, myalgia, neutropenia)” value ([2]; 400 mg/m(2)/day with paclitaxel and carboplatin) is listed as “two of three”. The “Tolerability of the combination” value ([2]; continuous daily for 5 days, with paclitaxel and carboplatin on day 1) was “well tolerated”, the “Animals cured (survival through day 21)” value (Yellow Fever [3]; squalamine 15 mg/kg/day s.c. from 1 dpi to 8 dpi) was 60% and the “Animals cured (survival through day 21)” value (Yellow Fever [3]; squalamine 30 mg/kg/day s.c. from 1 dpi to 8 dpi) was 60%. For the same compound, the “Animals cured (survival through day 21)” value (Yellow Fever [3]; squalamine 30 mg/kg/day s.c. from 2 dpi to 9 dpi) was 40%, the “Localization of Lact-C2 probe” value (RAW264.7 cell line) was “did not alter the localization” and the “Localization of R-pre probe” value (RAW264.7 cell line) was “displaced from its residence on the plasma membrane”. For the same compound, the Efficacy in mice [4] was “ineffective”, the “% Inhibition of MPP uptake caused by 100 μM” value (Human Oct 3) was 60% and the “% Inhibition of MPP uptake caused by 100 μM” value (Human Oct 1; 100 μM aminosterol, radiolabelled MPP 0.01 μM, 1-second exposure) was 25%. The IC50 (Human Oct 1; read-out: IC50 (concentration required to inhibit MPP uptake by 50%)) was 34 µM, the “Disruption of thrombin induced stress fiber formation” value (HUVECs) was “Yes” and the “Disruption of thrombin induced stress fiber formation” value (HUVECs; listed as squalamine) was “disrupt thrombin induced stress fiber formation”. For the same compound, the Survival (Yellow Fever [5]) was 70%, the “Inhibition of HIV infection” value [6] was “about 50%” and the “Toxicity towards the HeLa cells” value ([6]; 30 μg/ml) was “no evidence of toxicity”.
